The experiment deals with NK1 receptor. The experiment can be described thus: NK1 receptor test by the methods of WO 93/01165, pages 36 to 39. Type of experiment: binding, human. Particulars: 3(R) compound compared with its 3(S) epimer, Example 124. The method, then: The exemplified compounds of this invention were tested by the methods set out at pages 36 to 39 of International Patent Specification No. WO 93/01165.

On to “(3R,5R,6S)-3-[2-(2,2,-Difluoroethoxy)-5-(difluoromethoxy)phenyl]-6-phenyl-1-oxa-7-(tert-butoxycarbonyl)aza-spiro[4,5]decane [Example 214]”, for which the “potency relative to epimer” value is on record as “more potent”.

Source of the values: patent US6071927A, “Spiro-piperidine derivatives and their use as therapeutic agents” (Merck Sharp & Dohme Ltd., priority 1996, dated 2000).
